# Read-outs that look alike come from different tables or passages of the source.
# Key:
# M. carbonacea = experiment: nalidixic acid concentration test for conjugation, survival of M. carbonacea; format: cell-based, Micromonospora carbonacea var aurantiaca
# E. coli = experiment: nalidixic acid concentration test for conjugation, growth of donor E. coli; format: cell-based, Escherichia coli
# Protocol: M. carbonacea was grown on TSB agar (Oxoid™ Tryptone Soy Broth, 2% agarose) for 7 days at 30° C. Conjugal acceptor mycelia were prepared by inoculating a loop of mycelia into 10 mL of TSB medium in a 50 mL Falcon tube and incubating with shaking at 30° C. for 5 days. The culture was then centrifuged at 3000×g for 10 minutes and the pellet resuspended in 2 mL fresh TSB. 150 μL aliquots were transferred into sterile 1.5 mL Eppendorf tubes and homogenized using a sterile plastic cell homogenizer. Donor E. coli ET12567/pUZ8002 cells containing the gene replacement were prepared by inoculating 1% of a freshly prepared overnight LB culture into 10 mL LB medium in a 50 mL Falcon tube containing apramycin and kanamycin and grown to an OD600 of 0.4 at 37° C. with shaking. The culture was centrifuged at 3000×g for 10 minutes, and the pellet was washed three times with 10 mL fresh LB. After the final wash, the pellet was resuspended in 150 μL LB. 50 μL of donor E. coli was added to 150 μL of recipient M. carbonacea. The bacterial mixture was plated on AS1 agar (0.1% yeast extract, 0.5% soluble starch, 0.02% L-alanine, 0.02% L-arginine, 0.05% L-asparagine, 0.25% NaCl, 1% Na2SO4, 2% agarose at pH 7.5, supplemented with 10 mM MgCl2). The plates were then incubated at 37° C. for 1-2 hours until thoroughly dried. […]
# [1] = system: Staphyloccocus aureus subsp. aureus Rosenbach (ATCC 6538P); experiment: broth microdilution assay (NCCLS), antibacterial activity; format: cell-based, Staphylococcus aureus; conditions: for MIC: S. aureus subsp. aureus Rosenbach, broth microdilution
# Protocol: The antibacterial activity of purified everninomicins and conjugates was determined by the broth microdilution assay according to NCCLS guidelines using Staphyloccocus aureus subsp. aureus Rosenbach (ATCC 6538P) as the test organism.
# HygX = biological target: T1, HygX (Streptomyces hygroscopicus, UniProt Q2MFS1); experiment: tryptophan fluorescence quenching assay, hygromycin B binding to HygX; design: species or system S. hygroscopicus; conditions: 20° C.
# T1 sequence (Q2MFS1 1-258): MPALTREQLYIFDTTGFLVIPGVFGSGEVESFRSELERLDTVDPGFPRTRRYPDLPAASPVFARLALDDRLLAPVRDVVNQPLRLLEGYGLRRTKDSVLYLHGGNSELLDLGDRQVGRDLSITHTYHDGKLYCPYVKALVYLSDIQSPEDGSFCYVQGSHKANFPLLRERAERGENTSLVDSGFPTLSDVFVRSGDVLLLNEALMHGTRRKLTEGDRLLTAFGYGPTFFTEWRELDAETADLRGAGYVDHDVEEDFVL
# Protocol: The Kd of hygromycin B binding to HygX was determined by monitoring the quenching of intrinsic fluorescence from the single tryptophan residue of HygX upon hygromycin B binding. Using a Cary Eclipse Varian fluorescence spectrometer, sample fluorescence was measured at 20° C. with both emission and excitation slits set at 10 nm and detector voltage set to 800 V. The […] wavelength was set to 280 nm, and spectra collected were from 300 to 400 nm, with 350 nm used for calculating binding affinity. Each sample contained 990 μL of 0.5 μM HygX in 25 mM Tris (pH 7.4), 75 mM NaCl, 0.05 mM AKG, and 0.05 mM NiCl2, which was then mixed with 10 μL of hygromycin B (diluted in the above buffer) of varying concentrations. Spectra were measured in triplicate, and the experiment repeated three times. Because hygromycin B at higher concentrations has background fluorescence between 300 and 400 nm, the experiment was repeated using only buffer and subtracted from the measurement taken with HygX present. Change in fluorescence resulting from changing hygromycin B concentration was plotted against hygromycin B concentration and fit to a single binding-site model using Kaleidagraph Version 4.0.
# [2] = Staphylococcus aureus, ATCC6538P, read-out: MIC
molecule,measurement,setting,value
CCn1cc(C(=O)O)c(=O)c2ccc(C)nc21 [nalidixic acid],growth of M. carbonacea,M. carbonacea; nalidixic acid 12.5 μg/mL,substantially more
same,growth of M. carbonacea,M. carbonacea; nalidixic acid 25 μg/mL,stunted the growth
same,viability of M. carbonacea,M. carbonacea; nalidixic acid 50 μg/mL,not viable
same,growth of E. coli,E. coli; nalidixic acid 12.5 μg/mL,stunted
same,growth of E. coli,E. coli; nalidixic acid 25 μg/mL,stunted the growth
everninomicin H,activity against S. aureus,[1]; S. aureus,moderately active
same,MIC,[1],16 µg/mL
CCC1OC(=O)C[C@@H](O)[C@H](C)[C@@H](OC2OC(C)CC(N(C)C)C2O)[C@@H](CC=[N+]([O-])[C@@]2(C)C[C@@H](O[C@@H]3C[C@H](O[C@@H]([C@H](O)CC(=O)O)[C@@H](C)O)O[C@H](C)[C@H]3OC(=O)c3c(C)c(Cl)c(O)c(Cl)c3OC)O[C@@H](C)[C@H]2OC)C[C@@H](C)C(=O)/C=C/[C@]2(C)O[C@H]2[C@@H]1C (stereo partly shown),MIC,[1]; [2],1 µg/mL
COC[C@H]1O[C@@H](O[C@@H]2OC[C@@H]3O[C@@]4(OC[C@@H](OC(=O)c5c(C)cc(O)cc5O)[C@@H]5OCO[C@H]54)O[C@H]3[C@H]2O)[C@@H](OC)[C@@H](O)[C@@H]1O[C@@H]1O[C@H](C)[C@H](OC)[C@H](O[C@@H]2O[C@H](C)[C@H]3O[C@]4(C[C@@H](O)[C@H](O[C@H]5C[C@@H](O[C@H]6C[C@](C)([N+](=O)[O-])[C@@H](OC)[C@H](C)O6)[C@H](OC(=O)c6c(C)c(Cl)c(O)c(Cl)c6OC)[C@@H](C)O5)[C@@H](C)O4)O[C@]3(C)[C@@H]2O)[C@H]1O [everninomicin A],MIC,[1]; [2],1 µg/mL
CNC1CC(N)C(O)C(OC2OC(CO)C(O)C3OC4(OC(C(N)CO)C(O)C(O)C4O)OC23)C1O (stereo not shown) [hygromycin B],Kd,HygX,3.4 ± 0.5 µM

# Reference: US10696996B2, “Biosynthesis of everninomicin analogs in Micromonospora carbonacea var aurantiaca” (VANDERBILT UNIVERSITY, priority 2015, dated 2020)
